In patent US7977358B2, “Pyrazol derivatives” (Hoffmann-La Roche Inc., priority 2007, dated 2011):
pIC50: −log10 of the molar value.

Biological target: T1, human chemokine receptor 2 isoform B (CCR2B) (Homo sapiens, UniProt P41597)
T1 construct: host or cells: CHOK1-CCR2B-A5 (CHO-K1) cells
T1 sequence (P41597 1-360 isoform P41597-2): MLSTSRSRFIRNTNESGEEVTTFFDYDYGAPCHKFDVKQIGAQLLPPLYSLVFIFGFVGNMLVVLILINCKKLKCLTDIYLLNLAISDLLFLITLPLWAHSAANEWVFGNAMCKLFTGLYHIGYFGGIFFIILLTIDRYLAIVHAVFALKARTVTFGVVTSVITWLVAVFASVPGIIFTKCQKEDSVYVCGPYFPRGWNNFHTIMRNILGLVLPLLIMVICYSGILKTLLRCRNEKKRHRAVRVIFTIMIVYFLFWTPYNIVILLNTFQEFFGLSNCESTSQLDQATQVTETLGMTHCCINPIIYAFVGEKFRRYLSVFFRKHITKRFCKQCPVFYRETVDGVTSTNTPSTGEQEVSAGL
Test: Calcium mobilization assay
Type: cell-based
Settings: CHOK1-CCR2B-A5 cells, 20 nM MCP-1, FLIPR
Protocol: Calcium Mobilization Assay
CHOK1-CCR2B-A5 cells (from Euroscreen) stably overexpressing the human chemokine receptor 2 isoform B were cultured in Nutrient Hams F12 medium supplemented with 5% FBS, 100 U/ml penicillin, 100 μg/ml streptomycin, 400 μg/ml G418 and 5 μg/ml puromycin. For the assay cells were grown overnight in 384-well black clear flat bottom polystyrene plates (Costar) at 37° C. at 5% CO2. After washing with DMEM, 20 mM Hepes, 2.5 mM probenecid, 0.1% BSA (DMEM assay buffer) cells were loaded with 4 μM Fluo-4 in the same DMEM assay buffer for 2 hours at 30° C. Excess dye was removed and cells were washed with DMEM assay buffer. 384-well compound plates were prepared with DMEM assay buffer/0.5% DMSO with or without various concentrations of test compounds. Usually compounds were tested for agonist and antagonist activity.
Test compounds were added to the assay plate and agonist activity was monitored as fluorescence for 80 seconds with a FLIPR (488 nm excitation; 510-570 nm emission; Molecular Devices). After 20-30 min. of incubation at 30° C., 20 nM MCP-1 (R&D; Roche) was added and fluorescence was monitored again for 80 seconds. Increases in intracellular calcium are reported as maximum fluorescence after agonist exposure minus basal fluorescence before exposure. Antagonist activity is indicated as inhibitor concentration required for 50% inhibition of specific calcium increases.

Row | SMILES | pIC50
1 | Cc1nn(-c2cccc(OC(F)(F)F)c2)c(C2CC2)c1C(=O)N1CCC(N2C[C@@H](O)CC2C)CC1 (stereo in doubt) [Example 138, [5-Cyclopropyl-3-methyl-1-(3-trifluoromethoxy-phenyl)-1H-pyrazol-4-yl]-[4-((2R,4S)-4-hydroxy-2-methyl-pyrrolidin-1-yl)-piperidin-1-yl]-methanone] | 6.81
2 | CCN(CC)C1CCN(C(=O)c2c(C)nn(-c3cccc(/C=C/c4ccc(Cl)cc4)c3)c2C)C1 (centres unmarked) [Example 29, (1-{3-[(E)-2-(4-Chloro-phenyl)-vinyl]-phenyl}-3,5-dimethyl-1H-pyrazol-4-yl)-(3-diethylamino-pyrrolidin-1-yl)-methanone] | 7.00
3 | O=C(c1c(C2CC2)nn(-c2cccc(OC(F)(F)F)c2)c1C1CC1)N1CCC(N2CCCC2)CC1 [Example 76, [3,5-Dicyclopropyl-1-(3-trifluoromethoxy-phenyl)-1H-pyrazol-4-yl]-(4-pyrrolidin-1-yl-piperidin-1-yl)-methanone] | 6.91
4 | Cc1nn(-c2cccc(C(F)(F)F)c2)c(C)c1C(=O)N1CCC(N2CCOCC2)CC1 [Example 83, [3,5-Dimethyl-1-(3-trifluoromethyl-phenyl)-1H-pyrazol-4-yl]-(4-morpholin-4-yl-piperidin-1-yl)-methanone] | 6.18
5 | CC(=O)N[C@@H]1CCN(C2CCN(C(=O)c3c(C)nn(-c4cccc(OC(F)(F)F)c4)c3C)CC2)C1 [Example 119, N-((R)-1-{1-[3,5-Dimethyl-1-(3-trifluoromethoxy-phenyl)-1H-pyrazole-4-carbonyl]-piperidin-4-yl}-pyrrolidin-3-yl)-acetamide] | 6.51
6 | Cc1nn(-c2cccc(OC(F)(F)F)c2)c(C)c1C(=O)N1CCC(N2CCCC2C)C1 (centres unmarked) [Example 122, [3,5-Dimethyl-1-(3-trifluoromethoxy-phenyl)-1H-pyrazol-4-yl]-(2-methyl-[1,3′]bipyrrolidinyl-1′-yl)-methanone] | 6.14
7 | Cc1nn(-c2cccc(OC(F)(F)F)c2)c(C2CC2)c1C(=O)N1CCC(N2CCC3(C2)NC(=O)NC3=O)CC1 (centres unmarked) [Example 139, 7-{1-[5-Cyclopropyl-3-methyl-1-(3-trifluoromethoxy-phenyl)-1H-pyrazole-4-carbonyl]-piperidin-4-yl}-1,3,7-triaza-spiro[4.4]nonane-2,4-dione] | 6.85
8 | Cc1c(C(=O)N2CCC(N3CCC[C@H]3CO)CC2)c(-c2ccncc2)nn1-c1cccc(OC(F)(F)F)c1 [Example 161, [4-((S)-2-Hydroxymethyl-pyrrolidin-1-yl)-piperidin-1-yl]-[5-methyl-3-pyridin-4-yl-1-(3-trifluoromethoxy-phenyl)-1H-pyrazol-4-yl]-methanone] | 7.01
